Among the data in PMC4936967 (Molecular cancer therapeutics, 2016) are IC50 values, retold here.

The target of one assay is GSK3α (Homo sapiens, UniProt P49840). Kind of assay: radioactive […]-ATP in vitro kinase assay, 10-dose IC50, […] ATP. The class given is biochemical.
Another assay has as its target GSK3β (Homo sapiens, UniProt P49841). The assay is described as above. It counts as biochemical.

Chain of GSK3β (P49841 whole entry): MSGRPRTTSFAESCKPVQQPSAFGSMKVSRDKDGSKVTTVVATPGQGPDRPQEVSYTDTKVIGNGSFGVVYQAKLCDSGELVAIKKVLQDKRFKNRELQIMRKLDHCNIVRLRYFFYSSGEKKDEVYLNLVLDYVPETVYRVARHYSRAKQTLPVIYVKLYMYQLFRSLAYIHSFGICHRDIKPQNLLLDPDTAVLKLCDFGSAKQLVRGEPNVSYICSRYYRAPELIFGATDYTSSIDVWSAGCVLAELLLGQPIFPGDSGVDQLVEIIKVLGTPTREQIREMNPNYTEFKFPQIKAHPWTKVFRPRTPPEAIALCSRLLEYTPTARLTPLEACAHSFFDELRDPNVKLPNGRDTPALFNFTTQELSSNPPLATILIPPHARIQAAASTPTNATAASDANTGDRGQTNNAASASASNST
Chain of GSK3α (P49840 2-483): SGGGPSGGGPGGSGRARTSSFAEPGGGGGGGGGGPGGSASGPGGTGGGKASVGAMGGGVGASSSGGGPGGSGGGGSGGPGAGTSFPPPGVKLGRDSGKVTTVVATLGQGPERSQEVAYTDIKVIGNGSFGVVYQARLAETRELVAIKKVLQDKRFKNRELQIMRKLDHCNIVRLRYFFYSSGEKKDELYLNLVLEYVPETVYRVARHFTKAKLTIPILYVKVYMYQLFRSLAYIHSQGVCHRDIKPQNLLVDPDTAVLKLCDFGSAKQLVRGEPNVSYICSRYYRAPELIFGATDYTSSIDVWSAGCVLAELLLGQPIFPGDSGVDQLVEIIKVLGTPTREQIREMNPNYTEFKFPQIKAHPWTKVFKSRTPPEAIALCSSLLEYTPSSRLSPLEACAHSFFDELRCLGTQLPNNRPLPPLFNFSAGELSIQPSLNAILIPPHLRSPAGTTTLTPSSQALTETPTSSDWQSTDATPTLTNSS

As usually defined, the IC50 is the concentration needed to halve the response being measured. Consider GS87, for which the figures for the IC50 at GSK3α and at GSK3β were 0.415 µM and 0.521 µM, respectively.
